Patent publication US8242109B2, “Compositions and methods relating to novel compounds and targets thereof” (priority 2007, dated 2012)
Like-named read-outs stand apart in the source and are kept apart here.

Columns and labels:
[1] = tested on: Ramos cells; experiment: Cytotoxicity in Ramos cells; assay type: cell-based; settings: Homo sapiens, read-out: Ramos Cell EC50
Experimental: (§1) The compounds listed in Table 4 were tested for activity against F1F0-ATPase and cytotoxicity in Ramos cells. Inhibition of ATP synthesis and hydrolysis by the F1F0-ATPase was measured as described in K. M. Johnson et al., Chemistry & Biology 2005, 12, 485-496. Cytotoxicity in Ramos cells was measured as described in K. M. Johnson et al., Chemistry & Biology 2005, 12, 485-496, or using the alamarBlue™ Assay with fluorescence detection (U.S. Pat. No. 5,501,959) as supplied and described by Invitrogen (Carlsbad, Calif.).

[2] = molecular target: T1, F1F0-ATPase (Bos taurus, UniProt P13621); experiment: Inhibition of ATP synthesis and hydrolysis by the F1F0-ATPase; assay type: biochemical
T1 construct: from tissue; host or cells: bovine sub-mitochondrial particles (SMPs)
Experimental: as §1

## CC(C)NC(=O)Nc1ccc(C2=NC(Cc3ccccc3Br)C(=O)Nc3ccc(Cl)cc32)cc1 (stereo not shown) [Compound 1, (Z)-1-(4-(3-(2-bromobenzyl)-7-chloro-2-oxo-2,3-dihydro-1H-benzo[e][1,4]diazepin-5-yl)phenyl)-3-isopropylurea]
[1]; cytotoxicity in Ramos cells
  EC50: < 5 µM
[2]; read-out: ATPase IC50
  IC50: 5 to 10 µM

## CC(C)NC(=O)Nc1ccc(C2=NC(Cc3ccccc3C(F)(F)F)C(=O)Nc3ccc(Cl)cc32)cc1 (stereo not shown) [Compound 2, (Z)-1-(4-(7-chloro-2-oxo-3-(2-(trifluoromethyl)benzyl)-2,3-dihydro-1H-benzo[e][1,4]diazepin-5-yl)phenyl)-3-isopropylurea]
[1]; cytotoxicity in Ramos cells
  EC50: < 5 µM
[2]; read-out: ATPase IC50
  IC50: 5 to 10 µM

## CC(C)NC(=O)Nc1ccc(C2=NC(Cc3ccccc3F)C(=O)Nc3ccc(Cl)cc32)cc1 (stereo not shown) [Compound 3, (Z)-1-(4-(7-chloro-3-(2-fluorobenzyl)-2-oxo-2,3-dihydro-1H-benzo[e][1,4]diazepin-5-yl)phenyl)-3-isopropylurea]
[1]; cytotoxicity in Ramos cells
  EC50: 5 to 10 µM
[2]; read-out: ATPase IC50
  IC50: 5 to 10 µM

## CC(C)NC(=O)Nc1ccc(C2=NC(Cc3ccccc3Cl)C(=O)Nc3ccc(Cl)cc32)cc1 (stereo not shown) [Compound 4, (Z)-1-(4-(7-chloro-3-(2-chlorobenzyl)-2-oxo-2,3-dihydro-1H-benzo[e][1,4]diazepin-5-yl)phenyl)-3-isopropylurea]
[1]; cytotoxicity in Ramos cells
  EC50: < 5 µM
[2]; read-out: ATPase IC50
  IC50: 5 to 10 µM

## CNC(=O)Nc1ccc(C2=NC(Cc3ccccc3Cl)C(=O)Nc3ccc(Cl)cc32)cc1 (stereo not shown) [Compound 5, (Z)-1-(4-(7-chloro-3-(2-chlorobenzyl)-2-oxo-2,3-dihydro-1H-benzo[e][1,4]diazepin-5-yl)phenyl)-3-methylurea]
[1]; cytotoxicity in Ramos cells
  EC50: 5 to 10 µM
[2]
  IC50: 5 to 10 µM

## CN(C)CCNC(=O)Nc1ccc(C2=NC(Cc3ccccc3Cl)C(=O)Nc3ccc(Cl)cc32)cc1 (stereo not shown) [Compound 6, (Z)-1-(4-(7-chloro-3-(2-chlorobenzyl)-2-oxo-2,3-dihydro-1H-benzo[e][1,4]diazepin-5-yl)phenyl)-3-(2-(dimethylamino)ethyl)urea]
[1]; cytotoxicity in Ramos cells
  EC50: < 5 µM
[2]; read-out: ATPase IC50
  IC50: > 10 µM

## O=C(NCC(F)(F)F)Nc1ccc(C2=NC(Cc3ccccc3Cl)C(=O)Nc3ccc(Cl)cc32)cc1 (stereo not shown) [Compound 7, (Z)-1-(4-(7-chloro-3-(2-chlorobenzyl)-2-oxo-2,3-dihydro-1H-benzo[e][1,4]diazepin-5-yl)phenyl)-3-(2,2,2-trifluoroethyl)urea]
[1]; cytotoxicity in Ramos cells
  EC50: < 5 µM
[2]; read-out: ATPase IC50
  IC50: < 5 µM

## O=C(Nc1ccc(C2=NC(Cc3ccccc3Cl)C(=O)Nc3ccc(Cl)cc32)cc1)NC1CC1 (stereo not shown) [Compound 8, (Z)-1-(4-(7-chloro-3-(2-chlorobenzyl)-2-oxo-2,3-dihydro-1H-benzo[e][1,4]diazepin-5-yl)phenyl)-3-cyclopropylurea]
[1]; cytotoxicity in Ramos cells
  EC50: < 5 µM
[2]; read-out: ATPase IC50
  IC50: 5 to 10 µM

## COCCNC(=O)Nc1ccc(C2=NC(Cc3ccccc3Cl)C(=O)Nc3ccc(Cl)cc32)cc1 (stereo not shown) [Compound 9, (Z)-1-(4-(7-chloro-3-(2-chlorobenzyl)-2-oxo-2,3-dihydro-1H-benzo[e][1,4]diazepin-5-yl)phenyl)-3-(2-methoxyethyl)urea]
[1]; cytotoxicity in Ramos cells
  EC50: < 5 µM
[2]; read-out: ATPase IC50
  IC50: 5 to 10 µM

## CCOCCNC(=O)Nc1ccc(C2=NC(Cc3ccccc3Cl)C(=O)Nc3ccc(Cl)cc32)cc1 (stereo not shown) [Compound 10, (Z)-1-(4-(7-chloro-3-(2-chlorobenzyl)-2-oxo-2,3-dihydro-1H-benzo[e][1,4]diazepin-5-yl)phenyl)-3-(2-ethoxyethyl)urea]
[1]; cytotoxicity in Ramos cells
  EC50: < 5 µM
[2]; read-out: ATPase IC50
  IC50: 5 to 10 µM

## CNC(=O)Nc1ccc(C2=NC(Cc3ccccc3Br)C(=O)Nc3ccc(Cl)cc32)cc1 (stereo not shown) [Compound 11, (Z)-1-(4-(3-(2-bromobenzyl)-7-chloro-2-oxo-2,3-dihydro-1H-benzo[e][1,4]diazepin-5-yl)phenyl)-3-methylurea]
[1]; cytotoxicity in Ramos cells
  EC50: < 5 µM
[2]
  IC50: 5 to 10 µM

## CN(C)CCNC(=O)Nc1ccc(C2=NC(Cc3ccccc3Br)C(=O)Nc3ccc(Cl)cc32)cc1 (stereo not shown) [Compound 12, (Z)-1-(4-(3-(2-bromobenzyl)-7-chloro-2-oxo-2,3-dihydro-1H-benzo[e][1,4]diazepin-5-yl)phenyl)-3-(2-(dimethylamino)ethyl)urea]
[1]; cytotoxicity in Ramos cells
  EC50: < 5 µM
[2]; read-out: ATPase IC50
  IC50: 5 to 10 µM

## O=C(NCC(F)(F)F)Nc1ccc(C2=NC(Cc3ccccc3Br)C(=O)Nc3ccc(Cl)cc32)cc1 (stereo not shown) [Compound 13, (Z)-1-(4-(3-(2-bromobenzyl)-7-chloro-2-oxo-2,3-dihydro-1H-benzo[e][1,4]diazepin-5-yl)phenyl)-3-(2,2,2-trifluoroethyl)urea]
[1]; cytotoxicity in Ramos cells
  EC50: < 5 µM
[2]; read-out: ATPase IC50
  IC50: < 5 µM

## O=C(Nc1ccc(C2=NC(Cc3ccccc3Br)C(=O)Nc3ccc(Cl)cc32)cc1)NC1CC1 (stereo not shown) [Compound 14, (Z)-1-(4-(3-(2-bromobenzyl)-7-chloro-2-oxo-2,3-dihydro-1H-benzo[e][1,4]diazepin-5-yl)phenyl)-3-cyclopropylurea]
[1]; cytotoxicity in Ramos cells
  EC50: < 5 µM
[2]; read-out: ATPase IC50
  IC50: 5 to 10 µM

## COCCNC(=O)Nc1ccc(C2=NC(Cc3ccccc3Br)C(=O)Nc3ccc(Cl)cc32)cc1 (stereo not shown) [Compound 15, (Z)-1-(4-(3-(2-bromobenzyl)-7-chloro-2-oxo-2,3-dihydro-1H-benzo[e][1,4]diazepin-5-yl)phenyl)-3-(2-methoxyethyl)urea]
[1]; cytotoxicity in Ramos cells
  EC50: < 5 µM
[2]; read-out: ATPase IC50
  IC50: 5 to 10 µM

## CCOCCNC(=O)Nc1ccc(C2=NC(Cc3ccccc3Br)C(=O)Nc3ccc(Cl)cc32)cc1 (stereo not shown) [Compound 16, (Z)-1-(4-(3-(2-bromobenzyl)-7-chloro-2-oxo-2,3-dihydro-1H-benzo[e][1,4]diazepin-5-yl)phenyl)-3-(2-ethoxyethyl)urea]
[1]; cytotoxicity in Ramos cells
  EC50: < 5 µM
[2]; read-out: ATPase IC50
  IC50: 5 to 10 µM

## Cc1ccccc1CC1N=C(c2ccc(O)cc2)c2cc(Cl)ccc2NC1=O (stereo not shown) [Compound 17, (Z)-7-chloro-5-(4-hydroxyphenyl)-3-(2-methylbenzyl)-1H-benzo[e][1,4]diazepin-2(3H)-one]
[1]; Ramos
  EC50: 5 to 10 µM
[2]
  IC50: 5 to 10 µM

## Cc1ccccc1CC1N=C(c2ccc(O)cc2)c2cc(Cl)ccc2N(C)C1=O (stereo not shown) [Compound 18, (Z)-7-chloro-5-(4-hydroxyphenyl)-1-methyl-3-(2-methylbenzyl)-1H-benzo[e][1,4]diazepin-2(3H)-one]
[1]; cytotoxicity in Ramos cells
  EC50: > 10 µM
[2]
  IC50: > 10 µM

## Cc1cccc(CC2N=C(c3ccc(O)cc3)c3cc(Cl)ccc3NC2=O)c1 (stereo not shown) [Compound 19, (Z)-7-chloro-5-(4-hydroxyphenyl)-3-(3-methylbenzyl)-1H-benzo[e][1,4]diazepin-2(3H)-one]
[1]; Ramos
  EC50: 5 to 10 µM
[2]
  IC50: 5 to 10 µM

## Cc1cccc(CC2N=C(c3ccc(O)cc3)c3cc(Cl)ccc3N(C)C2=O)c1 (stereo not shown) [Compound 20, (Z)-7-chloro-5-(4-hydroxyphenyl)-1-methyl-3-(3-methylbenzyl)-1H-benzo[e][1,4]diazepin-2(3H)-one]
[1]; cytotoxicity in Ramos cells
  EC50: > 10 µM
[2]
  IC50: > 10 µM

## Cc1ccc(CC2N=C(c3ccc(O)cc3)c3cc(Cl)ccc3NC2=O)cc1 (stereo not shown) [Compound 21, (Z)-7-chloro-5-(4-hydroxyphenyl)-3-(4-methylbenzyl)-1H-benzo[e][1,4]diazepin-2(3H)-one]
[1]; Ramos
  EC50: 5 to 10 µM
[2]
  IC50: 5 to 10 µM

## Cc1ccc(CC2N=C(c3ccc(O)cc3)c3cc(Cl)ccc3N(C)C2=O)cc1 (stereo not shown) [Compound 22, (Z)-7-chloro-5-(4-hydroxyphenyl)-1-methyl-3-(4-methylbenzyl)-1H-benzo[e][1,4]diazepin-2(3H)-one]
[1]; cytotoxicity in Ramos cells
  EC50: > 10 µM
[2]
  IC50: > 10 µM

## CCc1ccccc1CC1N=C(c2ccc(O)cc2)c2cc(Cl)ccc2NC1=O (stereo not shown) [Compound 23, (Z)-7-chloro-3-(2-ethylbenzyl)-5-(4-hydroxyphenyl)-1H-benzo[e][1,4]diazepin-2(3H)-one]
[1]; cytotoxicity in Ramos cells
  EC50: 5 to 10 µM
[2]
  IC50: 5 to 10 µM

## CCc1ccccc1CC1N=C(c2ccc(O)cc2)c2cc(Cl)ccc2N(C)C1=O (stereo not shown) [Compound 24, (Z)-7-chloro-3-(2-ethylbenzyl)-5-(4-hydroxyphenyl)-1-methyl-1H-benzo[e][1,4]diazepin-2(3H)-one]
[1]; cytotoxicity in Ramos cells
  EC50: > 10 µM
[2]
  IC50: 5 to 10 µM

## CCc1cccc(CC2N=C(c3ccc(O)cc3)c3cc(Cl)ccc3NC2=O)c1 (stereo not shown) [Compound 25, (Z)-7-chloro-3-(3-ethylbenzyl)-5-(4-hydroxyphenyl)-1H-benzo[e][1,4]diazepin-2(3H)-one]
[1]; cytotoxicity in Ramos cells
  EC50: 5 to 10 µM
[2]
  IC50: 5 to 10 µM

## CCc1cccc(CC2N=C(c3ccc(O)cc3)c3cc(Cl)ccc3N(C)C2=O)c1 (stereo not shown) [Compound 26, (Z)-7-chloro-3-(3-ethylbenzyl)-5-(4-hydroxyphenyl)-1-methyl-1H-benzo[e][1,4]diazepin-2(3H)-one]
[1]; cytotoxicity in Ramos cells
  EC50: 5 to 10 µM
[2]
  IC50: 5 to 10 µM

## CCc1ccc(CC2N=C(c3ccc(O)cc3)c3cc(Cl)ccc3N(C)C2=O)cc1 (stereo not shown) [Compound 27, (Z)-7-chloro-3-(4-ethylbenzyl)-5-(4-hydroxyphenyl)-1-methyl-1H-benzo[e][1,4]diazepin-2(3H)-one]
[1]; cytotoxicity in Ramos cells
  EC50: 5 to 10 µM
[2]
  IC50: 5 to 10 µM

## CCc1ccc(CC2N=C(c3ccc(O)cc3)c3cc(Cl)ccc3NC2=O)cc1 (stereo not shown) [Compound 28, (Z)-7-chloro-3-(4-ethylbenzyl)-5-(4-hydroxyphenyl)-1H-benzo[e][1,4]diazepin-2(3H)-one]
[1]; cytotoxicity in Ramos cells
  EC50: 5 to 10 µM
[2]
  IC50: 5 to 10 µM

## CC(C)c1cccc(CC2N=C(c3ccc(O)cc3)c3cc(Cl)ccc3N(C)C2=O)c1 (stereo not shown) [Compound 29, (Z)-7-chloro-5-(4-hydroxyphenyl)-3-(3-isopropylbenzyl)-1-methyl-1H-benzo[e][1,4]diazepin-2(3H)-one]
[1]; cytotoxicity in Ramos cells
  EC50: 5 to 10 µM
[2]
  IC50: 5 to 10 µM

## CC(C)c1ccc(CC2N=C(c3ccc(O)cc3)c3cc(Cl)ccc3NC2=O)cc1 (stereo not shown) [Compound 30, (Z)-7-chloro-5-(4-hydroxyphenyl)-3-(4-isopropylbenzyl)-1H-benzo[e][1,4]diazepin-2(3H)-one]
[1]; cytotoxicity in Ramos cells
  EC50: 5 to 10 µM
[2]
  IC50: 5 to 10 µM

## CN1C(=O)C(Cc2ccccc2Br)N=C(c2ccc3[nH]c(=O)[nH]c3c2)c2cc(Cl)ccc21 (stereo not shown) [Compound 35, (Z)-3-(2-bromobenzyl)-7-chloro-1-methyl-5-(2-oxo-2,3-dihydro-1H-benzo[d]imidazol-5-yl)-1H-benzo[e][1,4]diazepin-2(3H)-one]
[1]; Ramos
  EC50: 5 to 10 µM
